Measured values from patent publication EP0563281B1, “METHOD FOR PROCESSING ELECTRICALLY CONDUCTIVE POLYANILINES IN LEWIS-BASE SOLVENTS” (MONSANTO COMPANY, priority 1990, dated 1992).
Read-outs that look alike come from different tables or passages of the source.

What was measured:
[1] = cited from earlier work; for m: dipole moment; for mp: dipole moment of non-solvent
[2] = cited from earlier work
[3] = Hansen's method for solubility parameters and interaction distance r relative to polyaniline base; settings: for r: Table 5, interaction distance to polyaniline base (17.4, 8.5, 10.4)
From the text: When multiple literature source were found with widely differing values, those sets of values were taken which were the closest to those theoretically predicted for the given solvent.

[4] = Solvent test with undoped (neutralized) polyaniline (Example 8); assay type: physicochemical; settings: polyaniline synthesized as in Example 1, undoped with aqueous sodium carbonate
Method: A series of potential solvents with significant polar and hydrogen bonding contributions were tested with polyaniline which had been synthesized as in Example 1 and then undoped (neutralized) by treatment with an aqueous solution of sodium carbonate.

[5] = Table 5, Hansen parameter of the liquid
[6] = Table 4, Hildebrand (solubility) parameter
[7] = Table 6, second half, Hansen parameter of non-solvent
[8] = Table 6, Hansen parameter of non-solvent
[9] = Table 6, Hildebrand parameter of non-solvent
[10] = Table 4, dielectric constant relative to permittivity of free space
[11] = Table 4, relative sound velocity in paper wetted by the solvent (water = 100), hydrogen bonding capability

For `CN(C)N` [1,1-dimethylhydrazine], the d ([1]; Table 7, Hildebrand Parameter) is listed as 19.8 MPa.
For `Cc1ccccn1` [2-picoline], the e ([1]; Table 7, Dielectric Constant) is given as 9.8 and the d ([1]; Table 7, Hildebrand Parameter) is given as 20.9 MPa.
For `O=C1CCCN1` [2-pyrrolidone], the dd [2, 5] is listed as 19.4 MPa, the dh [2, 5] is listed as 11.3 MPa and the dp [2, 5] is listed as 17.4 MPa. For the same compound, the d [1, 6] was 28.4 MPa, the m ([1]; Table 4) was 7.7 10^-30 Cm and the d ([1]; Table 7, Hildebrand Parameter) was 28.4 MPa. For the same compound, the r [3] was 99.8.
In the case of `CCCCc1ccc(N)cc1` [4-Butylaniline], the dh [2, 7] is given as 6.6 MPa, the dp [2, 7] is given as 9.1 MPa and the dd [2, 8] is given as 16.9 MPa. The d [1, 9] was 20.4 MPa.
In the case of `CN(C)C=O` [Dimethylformamide], the dd [2, 5] is given as 17.4 MPa, the dh [2, 5] is given as 11.3 MPa and the dp [2, 5] is given as 13.7 MPa. The e [1, 10] was 37.0, the m ([1]; Table 4) was 11.2 10^-30 Cm and the gw [1, 11] was 68.0.
For `CNNC` [Dimethylhydrazine], the dd [2, 5] is given as 15.3 MPa, the dh [2, 5] is given as 11.0 MPa and the dp [2, 5] is given as 5.9 MPa. The d [1, 6] was 19.8 MPa and the r [3] was 5.0.
For `CCNc1ccccc1` [N-Ethylaniline], the dh [2, 7] is listed as 7.7 MPa, the dp [2, 7] is listed as 10.5 MPa and the dd [2, 8] is listed as 17.1 MPa. For the same compound, the d [1, 9] was 21.5 MPa.
In the case of `CN1CCCC1=O` [N-methyl-2-pyrrolidone], the “solvent for undoped polyaniline” value [4] is listed as “solvent”, the dd [2, 5] is listed as 16.5 MPa and the dh [2, 5] is listed as 13.5 MPa. For the same compound, the dp [2, 5] was 10.4 MPa, the d [1, 6] was 23.7 MPa and the e [1, 10] was 32.0.
In the case of `Cc1ccccn1` [Picoline], the dd [2, 5] is listed as 18.2 MPa, the dh [2, 5] is listed as 6.8 MPa and the dp [2, 5] is listed as 7.8 MPa. For the same compound, the d [1, 6] was 20.9 MPa, the e [1, 10] was 9.8 and the m ([1]; Table 4) was 6.3 10^-30 Cm. The r [3] was 4.0.
For `Nc1ccccc1` [aniline], the dd [2, 5] is given as 19.4 MPa, the dh [2, 5] is given as 10.0 MPa and the dp [2, 5] is given as 5.1 MPa. The d [1, 6] was 22.6 MPa, the e [1, 10] was 6.9 and the m ([1]; Table 4) was 5.0 10^-30 Cm. The gw [1, 11] was 94.0 and the r [3] was 5.3.
For `NCc1ccccc1` [benzylamine], the pKa ([1]; Table 7) is given as 9.3.
For `CCCCN` [butylamine], the dd [2, 5] is listed as 13.6 MPa, the dh [2, 5] is listed as 8.0 MPa and the dp [2, 5] is listed as 8.1 MPa. The d [1, 6] was 18.6 MPa, the e [1, 10] was 5.3 and the m ([1]; Table 4) was 4.7 10^-30 Cm. The e ([1]; Table 7, Dielectric Constant) was 5.3, the d ([1]; Table 7, Hildebrand Parameter) was 17.7 MPa and the pKa ([1]; Table 7) was 10.8.
For `CC(C)NC(C)C` [diisopropylamine], the dh [2, 7] is given as 2.0 MPa, the dp [2, 7] is given as 6.2 MPa and the dd [2, 8] is given as 13.8 MPa. For the same compound, the d [1, 9] was 15.2 MPa and the “predicted interaction distance (r)” value ([3]; Table 6, second half, Hansen Method) was 11.3.
For `CCCNCCC` [dipropylamine], the dh [2, 7] is listed as 5.8 MPa, the dp [2, 7] is listed as 6.2 MPa and the dd [2, 8] is listed as 14.0 MPa. The d [1, 9] was 16.3 MPa.
For `NCCN` [ethylenediamine], the dd [2, 5] is given as 16.6 MPa, the dh [2, 5] is given as 17.0 MPa and the dp [2, 5] is given as 8.8 MPa. For the same compound, the e [1, 10] was 12.9, the m ([1]; Table 4) was 6.6 10^-30 Cm and the e ([1]; Table 7, Dielectric Constant) was 12.9. For the same compound, the pKa ([1]; Table 7) was 10.1.
In the case of `CN(C)P(=O)(N(C)C)N(C)C` [hexamethylphosporamide], the dd [2, 5] is listed as 18.3 MPa, the dh [2, 5] is listed as 11.3 MPa and the dp [2, 5] is listed as 8.6 MPa. The d [1, 6] was 23.2 MPa, the e [1, 10] was 30.0 and the m ([1]; Table 4) was 17.6 10^-30 Cm. For the same compound, the e ([1]; Table 7, Dielectric Constant) was 30.0, the d ([1]; Table 7, Hildebrand Parameter) was 23.2 MPa and the r [3] was 2.0.
In the case of `c1c[nH]cn1` [imidazole], the pKa ([1]; Table 7) is given as 7.1.
In the case of `C1COCCN1` [morpholine], the dd [2, 5] is given as 16.0 MPa, the dh [2, 5] is given as 10.1 MPa and the dp [2, 5] is given as 11.4 MPa. For the same compound, the d [1, 6] was 22.1 MPa, the e [1, 10] was 7.3 and the m ([1]; Table 4) was 5.0 10^-30 Cm. For the same compound, the gw [1, 11] was 200.0, the e ([1]; Table 7, Dielectric Constant) was 7.3 and the d ([1]; Table 7, Hildebrand Parameter) was 22.1 MPa. The gw ([1]; Table 7, Hydrogen Bonding) was 200.0 and the r [3] was 4.0.
In the case of `C1CCNCC1` [piperidine], the e ([1]; Table 7, Dielectric Constant) is listed as 5.8, the d ([1]; Table 7, Hildebrand Parameter) is listed as 19.3 MPa and the gw ([1]; Table 7, Hydrogen Bonding) is listed as 89.0.
For `CCCN` [propylamine], the dd [2, 5] is given as 13.9 MPa, the dh [2, 5] is given as 7.2 MPa and the dp [2, 5] is given as 9.3 MPa. The e [1, 10] was 5.3, the m ([1]; Table 4) was 4.7 10^-30 Cm and the e ([1]; Table 7, Dielectric Constant) was 5.3. The pKa ([1]; Table 7) was 10.8.
For `c1ccncc1` [pyridine], the dd [2, 5] is given as 17.6 MPa, the dh [2, 5] is given as 7.7 MPa and the dp [2, 5] is given as 10.1 MPa. For the same compound, the e [1, 10] was 12.3, the m ([1]; Table 4) was 7.3 10^-30 Cm and the gw [1, 11] was 80.0.
In the case of `C1CCNC1` [pyrrolidine], the m ([1]; Table 4) is given as 5.3 10^-30 Cm.
In the case of `c1ccc2ncccc2c1` [quinoline], the dd [2, 5] is given as 19.4 MPa, the dh [2, 5] is given as 7.6 MPa and the dp [2, 5] is given as 7.0 MPa. The d [1, 6] was 22.0 MPa, the e [1, 10] was 9.0 and the m ([1]; Table 4) was 7.6 10^-30 Cm.
For `CCCCN(CCCC)CCCC` [tributylamine], the dh [2, 7] is given as 4.0 MPa, the dp [2, 7] is given as 2.8 MPa and the dd [2, 8] is given as 15.1 MPa. The d [1, 9] was 15.9 MPa and the mp ([1]; Table 6) was 2.3 10^-30 Cm.
For `CCN(CC)CC` [triethylamine], the dh [2, 7] is listed as 1.9 MPa, the dp [2, 7] is listed as 3.7 MPa and the dd [2, 8] is listed as 14.6 MPa. For the same compound, the d [1, 9] was 15.3 MPa and the mp ([1]; Table 6) was 2.2 10^-30 Cm.
